Data as given in ChEMBL document CHEMBL1201862, “PubChem BioAssay data set” (2004).
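Following 48 hours of exposure in 96-well plates, responses at five concentrations were used to interpolate endpoints linearly. GI50: concentration for 50% inhibition of growth.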 Calls of active or inactive are those of the source. Rule as the data show it: active = GI50 up to about 1.1 µM and inactive = higher. Where a SMILES comes first, the peptide text is derived from it. [ ]: non-standard residue; d: D form. The star is where a group is joined. Bn2Val = CC(C)[C@@H](C(=O)*)N(Cc1ccccc1)Cc1ccccc1; NH(3,4-diMeO-benzyl) = COc1ccc(CN*)cc1OC; NMeV = CN[C@H](C(=O)O)C(C)C

Key:
Test in all cases: growth of human tumour cells (NCI), 48 h
A549 = test system: A549
BT-549 = test system: BT-549
CAKI-1 = test system: CAKI-1
Hs-578T = test system: Hs-578T
LOX IMVI = test system: LOX IMVI
MDA-MB-231 = test system: MDA-MB-231
MOLT-4 = test system: MOLT-4
Malme-3M = test system: Malme-3M
NCI-H522 = test system: NCI-H522
OVCAR-5 = test system: OVCAR-5
SF-539 = test system: SF-539
SK-MEL-28 = test system: SK-MEL-28
SK-MEL-5 = test system: SK-MEL-5
SN12C = test system: SN12C
SNB-19 = test system: SNB-19
SW-620 = test system: SW-620
T47D = test system: T47D
U-251 = test system: U-251
UO-31 = test system: UO-31

Measured: GI50

Cc1ccc(NC(=O)CSc2nc(C)nc3c2sc(=S)n3-c2ccccc2)cc1
inactive: A549 > 10 µM | BT-549 4.09 µM | CAKI-1 > 10 µM | Hs-578T 2.66 µM | LOX IMVI > 10 µM | MDA-MB-231 6.3 µM | MOLT-4 > 10 µM | Malme-3M 7.8 µM | NCI-H522 > 10 µM | OVCAR-5 > 10 µM | SF-539 3.01 µM | SK-MEL-28 > 10 µM | SK-MEL-5 > 10 µM | SN12C 6.49 µM | SNB-19 5.37 µM | SW-620 > 10 µM | T47D > 10 µM | U-251 3.84 µM

O=C1C(Cl)C(c2cccc(Cl)c2)N1c1ccc(-n2c(S)nc3ccccc3c2=O)cc1 (stereo unspecified)
inactive: A549 28.2 µM | BT-549 39.4 µM | CAKI-1 34.7 µM | Hs-578T 20.2 µM | LOX IMVI 13.9 µM | MDA-MB-231 20 µM | MOLT-4 14 µM | Malme-3M 40.2 µM | NCI-H522 15.1 µM | OVCAR-5 24.9 µM | SF-539 20 µM | SK-MEL-5 15.1 µM | SN12C 15.8 µM | SNB-19 2.47 µM | SW-620 29.6 µM | T47D 31.8 µM | U-251 13.3 µM | UO-31 20 µM

COC(=O)C1=Nc2c(C)nn(-c3ccccc3)c2N=C(c2ccc(C)cc2)C1
inactive: A549 > 10 µM | BT-549 > 10 µM | CAKI-1 > 10 µM | Hs-578T > 10 µM | LOX IMVI > 10 µM | MDA-MB-231 > 10 µM | MOLT-4 > 10 µM | Malme-3M > 10 µM | NCI-H522 > 10 µM | SF-539 > 10 µM | SK-MEL-28 > 10 µM | SK-MEL-5 > 10 µM | SN12C > 10 µM | SNB-19 > 10 µM | SW-620 > 10 µM | T47D > 10 µM | U-251 > 10 µM

COc1ccc(CNC(=O)[C@@H]2CCCN2C(=O)[C@@H]2CCCN2C(=O)[C@H](C(C)C)N(C)C(=O)[C@@H](NC(=O)[C@H](C(C)C)N(Cc2ccccc2)Cc2ccccc2)C(C)C)cc1OC (Bn2Val-V[NMeV]PP-{NH(3,4-diMeO-benzyl)})
inactive: A549 11.7 µM | BT-549 14.7 µM | CAKI-1 15.8 µM | Hs-578T 51.3 µM | LOX IMVI 4.26 µM | MDA-MB-231 17.5 µM | MOLT-4 4.39 µM | Malme-3M 25.2 µM | NCI-H522 8.85 µM | OVCAR-5 18.5 µM | SF-539 17.1 µM | SK-MEL-28 16.9 µM | SK-MEL-5 7.5 µM | SN12C 15 µM | SNB-19 15.9 µM | SW-620 12.8 µM | T47D 12.6 µM | U-251 15.7 µM

O=C(O)C(Br)C(Br)c1ccccc1[N+](=O)[O-] (stereo unspecified)
inactive: A549 > 100 µM | BT-549 > 100 µM | CAKI-1 > 100 µM | Hs-578T > 100 µM | LOX IMVI > 100 µM | MDA-MB-231 > 100 µM | Malme-3M > 100 µM | NCI-H522 16.3 µM | OVCAR-5 > 100 µM | SF-539 > 100 µM | SK-MEL-28 > 100 µM | SK-MEL-5 > 100 µM | SN12C > 100 µM | SNB-19 > 100 µM | SW-620 > 100 µM | T47D > 100 µM | U-251 > 100 µM | UO-31 5.46 µM

COc1ccc(C2C3COc4ccccc4C3=NN2c2ccccc2)cc1 (stereo unspecified)
inactive: A549 > 100 µM | BT-549 > 100 µM | CAKI-1 > 100 µM | Hs-578T > 100 µM | LOX IMVI > 100 µM | MDA-MB-231 > 100 µM | MOLT-4 92.5 µM | Malme-3M > 100 µM | NCI-H522 > 100 µM | OVCAR-5 > 100 µM | SF-539 > 100 µM | SK-MEL-5 > 100 µM | SNB-19 > 100 µM | SW-620 > 100 µM | T47D 48.8 µM | U-251 > 100 µM | UO-31 > 100 µM
